Source: article PMC4728661, “Cancer Prevention and Health Benefices of Traditionally Consumed Borago officinalis Plants” (Nutrients, 2016)
Several values for one entry are separate records, joined by “and”; a condition that tells them apart may be missing. Identical values can stand only once. Marks after values point to notes of the source that are not given here.

Key:
D. melanogaster [1] = assay: Toxicity: survival of Drosophila larvae to emerged adults, simple and combined (H2O2) treatments; assay type: in vivo, Drosophila melanogaster
Method: Optimal fertile flies were anesthetized under CO2 narcotisation for cross selection and then placed in new vials for fertilization. After that, hybrid eggs from crossing were collected over an 8 h period and emerged larvae (72 ± 4 h later) were cleaned up for a few seconds in sterile distilled water to remove feeding medium rests. […] Bioactive compound concentrations were chosen on the basis of their known content in B. officinalis species. […] Larvae were fed on these media until pupation (about 48 h). After emergence, resulting adult flies were sacrificed under CO2 narcotisation and stored in a 70% ethanol solution in sterile water. […] The determination of Toxicity (T) of treatments in D. melanogaster was performed following this formula [39]: T = (N° of emerging individuals in treatment/N° of emerging individuals in the negative control) × 100(1) Differences in D. melanogaster survival between treatments at each concentration with respect to negative control were analyzed with a Chi-square test. This procedure was also performed for the analysis of each simple treatment with their correspondent combined treatment.

D. melanogaster [2] = assay: Genotoxicity: Somatic Mutation and Recombination Test (SMART), wing spot test, simple treatments; assay type: in vivo, Drosophila melanogaster
Method: The D. melanogaster system was selected for the determination of the safety of B. officinalis consumption as a well-recognized method to analyze vegetable complex mixtures using SMART [31, 32]. This test was used in order to evaluate the genotoxic and antigenotoxic activity of B. officinalis leaves and petioles as well as their selected bioactive compounds [33]. This activity was measured by direct visualization of the occurrence of recessive mutations in the wing hairs of two different D. melanogaster strains. Flies from experiments carried these visible wing genetic markers: the flare (flr) strain flr^3/ln (3LR) TM3, Bd^s and the multiple wing-hair (mwh) strain mwh/mwh. The marker flare (flr^3, 3_38.3) produces individual malformed hairs and the marker multiple wing hairs (mwh, 3_0.3) produces multiple hairs per cell. Larvae used in treatments come from two types of crosses: the standard cross with flr^3/TM3, Bd^S females mated to mwh/mwh males and the reciprocal cross.
Optimal fertile flies were anesthetized under CO2 narcotisation for cross selection and then placed in new vials for fertilization. After that, hybrid eggs from crossing were collected over an 8 h period and emerged larvae (72 ± 4 h later) were cleaned up for a few seconds in sterile distilled water to remove feeding medium rests. For genotoxicity analysis (simple treatments), groups of 100 larvae were transferred into vials containing 0.85 g of Drosophila Instant Medium (Formula 4–24, Carolina Biological Supply, Burlington, NC, USA) wetted with 4 mL of a mixture of distilled water and increasing concentrations of samples: B. officinalis BF and WF (1.25, 2.5, and 5 mg·mL^−1), RO (0.35, 0.7, 1.39 and 2.78 mM), SY (0.16, 0.32, 0.63 and 1.26 mM), SI (0.15, 0.29, 0.58 and 1.16 mM) and the mixture of these three bioactive compounds at each concentration assayed individually. Bioactive compound concentrations were chosen on the basis of their known content in B. officinalis species. […] Larvae were fed on these media until pupation (about 48 h). After emergence, resulting adult flies were sacrificed under CO2 narcotisation and stored in a 70% ethanol solution in sterile water. Emerged adults were counted for toxicity evaluation and transheterozygous wings (mwh flr^+/mwh^+ flr^3) were mounted on microscope slides and wing hair mutations (spots) scored, using a photonic microscope (Nikon) at 400× magnification for genotoxicity and antigenotoxicity evaluation.
For the evaluation of genotoxic effects, the frequencies of spots per fly of each treated series were compared to the concurrent negative control for each class of mutational clone as well as between simple and combined treatments for the same concentration comparisons. […] A multiple-decision procedure was used to categorize results as positive, inconclusive or negative. Inconclusive and positive results were evaluated by the non-parametric U test of Mann, Whitney and Wilcoxon. The inhibition percentage (IP) of genotoxicity was calculated from the total frequencies of spots per wing, following this formula [42]: IP = (genotoxin alone − sample + genotoxin) × 100/(genotoxin alone)(2)

O=C(/C=C/c1ccc(O)c(O)c1)O[C@H](Cc1ccc(O)c(O)c1)C(=O)O [RO, rosmarinic acid]
Survival average in combined treatments (D. melanogaster [1]; average of the four concentrations, combined with 0.12 M H2O2): 41.28
Survival (D. melanogaster [1]; combined with 0.12 M H2O2, 0.35 mM RO): 49.56 * %
Survival (D. melanogaster [1]; combined with 0.12 M H2O2, 0.7 mM RO): 31.11 *^,‡ %
Survival (D. melanogaster [1]; combined with 0.12 M H2O2, 1.39 mM RO): 45.56 *^,‡ %
Survival (D. melanogaster [1]; combined with 0.12 M H2O2, 2.78 mM RO): 38.89 *^,‡ %
Survival (D. melanogaster [1]; simple treatment, 0.35 mM RO): 48.44 * %
Survival (D. melanogaster [1]; simple treatment, 0.7 mM RO): 22.22 * %
Survival (D. melanogaster [1]; simple treatment, 1.39 mM RO): 33.33 * %
Survival (D. melanogaster [1]; simple treatment, 2.78 mM RO): 21.33% and 21.33 * %
Genotoxicity in the Drosophila wing spot test (in words) (D. melanogaster [2]; simple treatments, all concentrations): not mutagenic
Diagnosis, Small Single Spots 1–2 Cells m = 2 (D. melanogaster [2]; simple, 0.35 mM RO): −
Diagnosis, Total Spots m = 2 (D. melanogaster [2]; simple, 0.35 mM RO): −
Mutation rate, Large Single Spots >2 Cells m = 5 (D. melanogaster [2]; simple, 0.35 mM RO): 0 spots/wing
Mutation rate, Small Single Spots 1–2 Cells m = 2 (D. melanogaster [2]; simple, 0.35 mM RO): 0.38 (6) spots/wing
Mutation rate, Total Spots m = 2 (D. melanogaster [2]; simple, 0.35 mM RO): 0.38 (6) spots/wing
Mutation rate, Twin Spots m = 5 (D. melanogaster [2]; simple, 0.35 mM RO): 0 spots/wing
Diagnosis, Small Single Spots 1–2 Cells m = 2 (D. melanogaster [2]; simple, 0.7 mM RO): −
Diagnosis, Total Spots m = 2 (D. melanogaster [2]; simple, 0.7 mM RO): −
Diagnosis, Twin Spots m = 5 (D. melanogaster [2]; simple, 0.7 mM RO): −
Mutation rate, Large Single Spots >2 Cells m = 5 (D. melanogaster [2]; simple, 0.7 mM RO): 0 spots/wing
Mutation rate, Small Single Spots 1–2 Cells m = 2 (D. melanogaster [2]; simple, 0.7 mM RO): 0.21 (7) spots/wing
Mutation rate, Total Spots m = 2 (D. melanogaster [2]; simple, 0.7 mM RO): 0.26 (9) spots/wing
Mutation rate, Twin Spots m = 5 (D. melanogaster [2]; simple, 0.7 mM RO): 0.06 (2) spots/wing
Diagnosis, Small Single Spots 1–2 Cells m = 2 (D. melanogaster [2]; simple, 1.39 mM RO): −
Diagnosis, Total Spots m = 2 (D. melanogaster [2]; simple, 1.39 mM RO): −
Diagnosis, Twin Spots m = 5 (D. melanogaster [2]; simple, 1.39 mM RO): −
Mutation rate, Large Single Spots >2 Cells m = 5 (D. melanogaster [2]; simple, 1.39 mM RO): 0 spots/wing
Mutation rate, Small Single Spots 1–2 Cells m = 2 (D. melanogaster [2]; simple, 1.39 mM RO): 0.18 (4) spots/wing
Mutation rate, Total Spots m = 2 (D. melanogaster [2]; simple, 1.39 mM RO): 0.23 (5) spots/wing
Mutation rate, Twin Spots m = 5 (D. melanogaster [2]; simple, 1.39 mM RO): 0.05 (1) spots/wing
Diagnosis, Large Single Spots >2 Cells m = 5 (D. melanogaster [2]; simple, 2.78 mM RO): −
Diagnosis, Small Single Spots 1–2 Cells m = 2 (D. melanogaster [2]; simple, 2.78 mM RO): −
Diagnosis, Total Spots m = 2 (D. melanogaster [2]; simple, 2.78 mM RO): −
Mutation rate, Large Single Spots >2 Cells m = 5 (D. melanogaster [2]; simple, 2.78 mM RO): 0.05 (2) spots/wing
Mutation rate, Small Single Spots 1–2 Cells m = 2 (D. melanogaster [2]; simple, 2.78 mM RO): 0.16 (6) spots/wing
Mutation rate, Total Spots m = 2 (D. melanogaster [2]; simple, 2.78 mM RO): 0.21 (8) spots/wing
Mutation rate, Twin Spots m = 5 (D. melanogaster [2]; simple, 2.78 mM RO): 0 spots/wing
